Measurements reported in ChEMBL document CHEMBL4765403, “Augmentation of the antitumor effects of PARP inhibitors in triple-negative breast cancer via degradation by hydrophobic tagging modulation” (Eur J Med Chem, 2020).
Calls of active or inactive are those of the source. The calls are words filed in the database; no cut-off is given here.

What was measured:
[1] = biological target: Poly [ADP-ribose] polymerase 1 (Homo sapiens) (UniProt P09874); assay: Induction of PARP1 degradation in triple-negative human MDA-MB-231 cells assessed as fold change in PARP1 protein expression at 2.5 uM incubated for 48 hrs by Western blot analysis relative to control; format: cell-based
Chain of Poly [ADP-ribose] polymerase 1 (Homo sapiens) (P09874 whole entry): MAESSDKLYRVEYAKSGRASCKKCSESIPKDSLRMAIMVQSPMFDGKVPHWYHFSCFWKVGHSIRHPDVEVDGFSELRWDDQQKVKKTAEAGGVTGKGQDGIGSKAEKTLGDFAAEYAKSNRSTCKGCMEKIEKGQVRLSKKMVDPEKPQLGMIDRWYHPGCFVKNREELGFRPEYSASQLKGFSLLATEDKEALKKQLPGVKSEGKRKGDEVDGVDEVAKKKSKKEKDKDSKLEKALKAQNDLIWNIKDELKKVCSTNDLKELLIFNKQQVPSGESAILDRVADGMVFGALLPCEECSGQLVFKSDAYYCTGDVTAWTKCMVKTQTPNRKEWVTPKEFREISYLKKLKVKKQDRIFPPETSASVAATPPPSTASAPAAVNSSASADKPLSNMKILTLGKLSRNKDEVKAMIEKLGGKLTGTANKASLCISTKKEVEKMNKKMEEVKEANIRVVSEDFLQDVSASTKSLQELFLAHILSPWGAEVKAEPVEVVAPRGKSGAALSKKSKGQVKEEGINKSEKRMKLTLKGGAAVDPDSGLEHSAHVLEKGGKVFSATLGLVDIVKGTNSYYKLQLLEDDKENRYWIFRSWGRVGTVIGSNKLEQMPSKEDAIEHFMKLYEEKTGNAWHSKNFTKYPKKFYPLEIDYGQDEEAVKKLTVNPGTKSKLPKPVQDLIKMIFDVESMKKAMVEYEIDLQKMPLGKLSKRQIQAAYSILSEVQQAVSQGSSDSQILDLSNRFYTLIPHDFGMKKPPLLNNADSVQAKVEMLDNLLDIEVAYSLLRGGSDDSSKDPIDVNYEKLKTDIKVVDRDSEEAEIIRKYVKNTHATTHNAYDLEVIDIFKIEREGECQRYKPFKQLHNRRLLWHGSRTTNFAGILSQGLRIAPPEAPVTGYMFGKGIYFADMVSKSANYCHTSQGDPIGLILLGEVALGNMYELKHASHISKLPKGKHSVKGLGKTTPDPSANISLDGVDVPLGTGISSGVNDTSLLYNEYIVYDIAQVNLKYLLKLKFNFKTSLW

[2] = biological target: Poly [ADP-ribose] polymerase 1 (Homo sapiens) (UniProt P09874); assay: Induction of PARP1 degradation in triple-negative human MDA-MB-231 cells assessed as fold change in PARP1 protein expression at 10 uM incubated for 48 hrs by Western blot analysis relative to control; format: cell-based
[3] = biological target: Poly [ADP-ribose] polymerase 1 (Homo sapiens) (UniProt P09874); assay: Induction of PARP1 degradation in triple negative human MDA-MB-231 cells assessed as fold change in PARP1 protein expression at 5 uM incubated for 48 hrs by Western blot analysis relative to control; format: cell-based
[4] = test system: MDA-MB-231; assay: Cytotoxicity against triple-negative human MDA-MB-231 cells assessed as reduction in cell viability measured after 48 hrs by CCK8 assay; format: functional, cell-based; conditions: MDA-MB-231, 48 h
[5] = test system: MDA-MB-231; assay: Induction of autophagy in human MDA-MB-231 cells assessed as upregulation of LC3B protein expression at 5 uM incubated for 48 to 72 hrs by western blot analysis; format: functional, cell-based; conditions: time 48-72 hrs
[6] = test system: MDA-MB-231; assay: Induction of endoplasmic reticulum stress in human MDA-MB-231 cells assessed as upregulation of CHOP protein expression at 5 uM incubated for 48 to 72 hrs by western blot analysis; format: functional, cell-based; conditions: time 48-72 hrs
[7] = test system: MDA-MB-231; assay: Induction of endoplasmic reticulum stress in human MDA-MB-231 cells assessed as upregulation of XBP-1s protein expression at 5 uM incubated for 48 to 72 hrs by western blot analysis; format: functional, cell-based; conditions: time 48-72 hrs
[8] = test system: MDA-MB-231; assay: Cytotoxicity against human MDA-MB-231 cells assessed as reduction in cell viability measured after 96 hrs by CCK8 assay; format: functional, cell-based; conditions: MDA-MB-231, 96 h

| Structure (SMILES) | fold change (FC) [1] | fold change (FC) [2] | fold change (FC) [3] | IC50 [4] | Activity [5] | Activity [6] | Activity [7] | IC50 [8] |
| --- | --- | --- | --- | --- | --- | --- | --- | --- |
| O=C(CC12CC3CC(CC(C3)C1)C2)NCCCCCCN1CCN(C(=O)c2cc(Cc3n[nH]c(=O)c4ccccc34)ccc2F)CC1 | 0.9 | 0.8 | 1.2 |  |  |  |  |  |
| O=C(c1cc(Cc2n[nH]c(=O)c3ccccc23)ccc1F)N1CCN(C(=O)C(C2CCCCC2)C2CCCCC2)CC1 | 0.6 | 0.7 | 0.7 |  |  |  |  |  |
| O=C(CC1c2ccccc2-c2ccccc21)NCCCCCCN1CCN(C(=O)c2cc(Cc3n[nH]c(=O)c4ccccc34)ccc2F)CC1 | 0.5 | 0.4 | 0.5 |  |  |  |  |  |
| CC(C)Cc1ccc([C@H](C)C(=O)NCCCCCCN2CCN(C(=O)c3cc(Cc4n[nH]c(=O)c5ccccc45)ccc3F)CC2)cc1 | 1.2 | 0.3 | 0.7 | 15.9 µM |  |  |  |  |
| c1ccc2c(c1)Cc1ccccc1-2 [FLUORENE] |  |  |  | > 50 µM |  |  |  |  |
| CC(C)Cc1ccc([C@H](C)C(=O)NCCCCN2CCN(C(=O)c3cc(Cc4n[nH]c(=O)c5ccccc45)ccc3F)CC2)cc1 | 0.9 | 1.7 | 1.2 |  |  |  |  |  |
| O=C(CC12CC3CC(CC(C3)C1)C2)NCCN1CCN(C(=O)c2cc(Cc3n[nH]c(=O)c4ccccc34)ccc2F)CC1 | 1.1 | 1.3 | 1.2 |  |  |  |  |  |
| CC(C)Cc1ccc([C@H](C)C(=O)N2CCN(C(=O)c3cc(Cc4n[nH]c(=O)c5ccccc45)ccc3F)CC2)cc1 | 0.8 | 0.8 | 1 |  |  |  |  |  |
| O=C(CC12CC3CC(CC(C3)C1)C2)N1CCN(C(=O)c2cc(Cc3n[nH]c(=O)c4ccccc34)ccc2F)CC1 | 0.9 | 0.8 | 0.7 |  |  |  |  |  |
| O=C(NCCCCCCN1CCN(C(=O)c2cc(Cc3n[nH]c(=O)c4ccccc34)ccc2F)CC1)C(C1CCCCC1)C1CCCCC1 | 0.9 | 0.3 | 0.8 | > 50 µM |  |  |  |  |
| O=C(c1cc(Cc2n[nH]c(=O)c3ccccc23)ccc1F)N1CCN(C(=O)C2CC2)CC1 [OLAPARIB] |  |  |  |  | inactive | inactive | inactive | 32.4 µM |
| O=C(NCCCCN1CCN(C(=O)c2cc(Cc3n[nH]c(=O)c4ccccc34)ccc2F)CC1)C(C1CCCCC1)C1CCCCC1 | 1.1 | 1.2 | 0.8 |  |  |  |  |  |
| O=C(NCCN1CCN(C(=O)c2cc(Cc3n[nH]c(=O)c4ccccc34)ccc2F)CC1)C(C1CCCCC1)C1CCCCC1 | 0.9 | 0.9 | 0.9 |  |  |  |  |  |
| O=C(CC12CC3CC(CC(C3)C1)C2)NCCCCN1CCN(C(=O)c2cc(Cc3n[nH]c(=O)c4ccccc34)ccc2F)CC1 | 1.1 | 1.1 | 1.2 |  |  |  |  |  |

More lines, main results first:

| fold change (FC) [1] | fold change (FC) [2] | fold change (FC) [3] | Structure (SMILES) | IC50 [4] | Activity [5] | Activity [6] | Activity [7] | IC50 [8] |
| --- | --- | --- | --- | --- | --- | --- | --- | --- |
| 0.4 | 0.4 | 0.3 | O=C(CC1c2ccccc2-c2ccccc21)NCCN1CCN(C(=O)c2cc(Cc3n[nH]c(=O)c4ccccc34)ccc2F)CC1 | 26.2 µM |  |  |  |  |
| 1.4 | 1.3 | 1.5 | O=C(NCCCCCCN1CCN(C(=O)c2cc(Cc3n[nH]c(=O)c4ccccc34)ccc2F)CC1)C(c1ccccc1)c1ccccc1 |  |  |  |  |  |
| 1.3 | 1.3 | 1.1 | O=C(NCCN1CCN(C(=O)c2cc(Cc3n[nH]c(=O)c4ccccc34)ccc2F)CC1)C(c1ccccc1)c1ccccc1 |  |  |  |  |  |
| 1.4 | 1.2 | 1.6 | O=C(NCCCCN1CCN(C(=O)c2cc(Cc3n[nH]c(=O)c4ccccc34)ccc2F)CC1)C(c1ccccc1)c1ccccc1 |  |  |  |  |  |
| 0.5 | 0.5 | 0.5 | O=C(CC1c2ccccc2-c2ccccc21)NCCCCN1CCN(C(=O)c2cc(Cc3n[nH]c(=O)c4ccccc34)ccc2F)CC1 | > 50 µM |  |  |  |  |
| 1 | 1.1 | 1 | O=C(c1cc(Cc2n[nH]c(=O)c3ccccc23)ccc1F)N1CCN(C(=O)C(c2ccccc2)c2ccccc2)CC1 |  |  |  |  |  |
| 0.9 | 0.7 | 0.8 | CC(C)Cc1ccc([C@H](C)C(=O)NCCN2CCN(C(=O)c3cc(Cc4n[nH]c(=O)c5ccccc45)ccc3F)CC2)cc1 |  |  |  |  |  |
